# Measurements taken from ChEMBL document CHEMBL4138076, “Methyllysine binding domains: Structural insight and small molecule probe development” (Eur J Med Chem, 2017).
# Square brackets hold non-standard residues; d marks the D form. Peptide text beside a SMILES is read from it. * marks the point of attachment. Lys(Me3) = C[N+](C)(C)CCCC[C@H](N)C(=O)O; Bz = O=C(c1ccccc1)*
# Key:
# Polycomb protein EED = Polycomb protein EED (Homo sapiens, UniProt O75530); assay: Binding affinity to full length N-terminal His-tagged EED (unknown origin) expressed in Rosetta2 BL21(DE3)pLysS cells by ITC method
# Chain of Polycomb protein EED (O75530 whole entry): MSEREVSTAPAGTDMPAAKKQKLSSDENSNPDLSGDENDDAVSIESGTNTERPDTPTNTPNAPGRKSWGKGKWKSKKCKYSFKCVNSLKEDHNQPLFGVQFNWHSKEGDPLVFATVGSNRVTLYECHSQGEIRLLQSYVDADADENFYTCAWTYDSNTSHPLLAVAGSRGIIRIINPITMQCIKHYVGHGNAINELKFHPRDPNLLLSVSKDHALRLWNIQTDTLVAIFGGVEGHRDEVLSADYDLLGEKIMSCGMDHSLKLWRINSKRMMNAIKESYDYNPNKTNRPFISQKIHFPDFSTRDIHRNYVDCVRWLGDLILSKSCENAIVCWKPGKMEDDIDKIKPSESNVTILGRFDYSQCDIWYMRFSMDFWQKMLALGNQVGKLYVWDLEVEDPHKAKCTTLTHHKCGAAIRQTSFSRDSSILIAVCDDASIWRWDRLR
# [1] = target: T1, Chromobox protein homolog 7 (Homo sapiens, UniProt O95931); assay: Binding affinity to Cbx7 (unknown origin) by ITC method
# T1 sequence (O95931 whole entry): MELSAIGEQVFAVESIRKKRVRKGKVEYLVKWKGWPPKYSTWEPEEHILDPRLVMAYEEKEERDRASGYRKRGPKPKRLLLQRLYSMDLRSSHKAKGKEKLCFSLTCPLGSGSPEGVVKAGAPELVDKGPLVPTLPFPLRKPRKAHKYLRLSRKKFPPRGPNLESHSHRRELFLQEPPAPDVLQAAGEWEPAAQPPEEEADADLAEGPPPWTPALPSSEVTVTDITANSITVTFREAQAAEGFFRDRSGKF
# [2] = Inhibition of PRC2 (unknown origin) after 70 mins in presence of [3H]SAM by TopCount method; design: species or system Homo sapiens
# [3] = target: T1, Chromobox protein homolog 7; assay: Inhibition of Cbx7 (unknown origin) using FITC-labeled SETDB1-K1170me3 peptide as probe by fluorescence polarization assay
# [4] = target: T2, Lethal(3)malignant brain tumor-like protein 1 (Homo sapiens, UniProt Q9Y468); assay: Inhibition of L3MBTL1 (unknown origin) by AlphaScreen assay
# T2 sequence (Q9Y468 whole entry): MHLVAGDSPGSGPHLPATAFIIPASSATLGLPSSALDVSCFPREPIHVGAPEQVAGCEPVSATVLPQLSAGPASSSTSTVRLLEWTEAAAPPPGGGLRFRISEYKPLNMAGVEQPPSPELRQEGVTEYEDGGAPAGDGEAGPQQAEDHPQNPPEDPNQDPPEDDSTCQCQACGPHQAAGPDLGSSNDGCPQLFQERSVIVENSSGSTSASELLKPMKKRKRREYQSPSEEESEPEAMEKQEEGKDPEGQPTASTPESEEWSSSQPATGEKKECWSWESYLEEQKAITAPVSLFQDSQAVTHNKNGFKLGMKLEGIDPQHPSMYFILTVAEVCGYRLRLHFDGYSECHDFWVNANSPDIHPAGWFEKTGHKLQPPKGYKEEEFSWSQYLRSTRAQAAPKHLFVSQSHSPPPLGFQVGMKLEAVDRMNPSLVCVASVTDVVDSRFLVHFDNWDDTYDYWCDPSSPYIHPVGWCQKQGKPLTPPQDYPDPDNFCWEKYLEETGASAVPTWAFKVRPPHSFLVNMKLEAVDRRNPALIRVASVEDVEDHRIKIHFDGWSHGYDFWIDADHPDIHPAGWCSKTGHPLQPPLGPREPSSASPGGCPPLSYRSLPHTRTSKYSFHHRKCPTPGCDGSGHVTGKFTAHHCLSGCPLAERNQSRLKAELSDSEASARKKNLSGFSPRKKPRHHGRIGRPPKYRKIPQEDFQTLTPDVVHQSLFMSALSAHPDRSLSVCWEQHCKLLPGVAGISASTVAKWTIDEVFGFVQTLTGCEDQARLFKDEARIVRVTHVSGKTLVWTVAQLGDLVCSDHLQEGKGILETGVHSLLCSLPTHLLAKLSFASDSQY
# [5] = target: T3, Lysine-specific demethylase 5A (Homo sapiens, UniProt P29375); assay: Inhibition of JARID1A PHD finger domain (unknown origin)
# T3 sequence (P29375 whole entry, the tested form may be a part): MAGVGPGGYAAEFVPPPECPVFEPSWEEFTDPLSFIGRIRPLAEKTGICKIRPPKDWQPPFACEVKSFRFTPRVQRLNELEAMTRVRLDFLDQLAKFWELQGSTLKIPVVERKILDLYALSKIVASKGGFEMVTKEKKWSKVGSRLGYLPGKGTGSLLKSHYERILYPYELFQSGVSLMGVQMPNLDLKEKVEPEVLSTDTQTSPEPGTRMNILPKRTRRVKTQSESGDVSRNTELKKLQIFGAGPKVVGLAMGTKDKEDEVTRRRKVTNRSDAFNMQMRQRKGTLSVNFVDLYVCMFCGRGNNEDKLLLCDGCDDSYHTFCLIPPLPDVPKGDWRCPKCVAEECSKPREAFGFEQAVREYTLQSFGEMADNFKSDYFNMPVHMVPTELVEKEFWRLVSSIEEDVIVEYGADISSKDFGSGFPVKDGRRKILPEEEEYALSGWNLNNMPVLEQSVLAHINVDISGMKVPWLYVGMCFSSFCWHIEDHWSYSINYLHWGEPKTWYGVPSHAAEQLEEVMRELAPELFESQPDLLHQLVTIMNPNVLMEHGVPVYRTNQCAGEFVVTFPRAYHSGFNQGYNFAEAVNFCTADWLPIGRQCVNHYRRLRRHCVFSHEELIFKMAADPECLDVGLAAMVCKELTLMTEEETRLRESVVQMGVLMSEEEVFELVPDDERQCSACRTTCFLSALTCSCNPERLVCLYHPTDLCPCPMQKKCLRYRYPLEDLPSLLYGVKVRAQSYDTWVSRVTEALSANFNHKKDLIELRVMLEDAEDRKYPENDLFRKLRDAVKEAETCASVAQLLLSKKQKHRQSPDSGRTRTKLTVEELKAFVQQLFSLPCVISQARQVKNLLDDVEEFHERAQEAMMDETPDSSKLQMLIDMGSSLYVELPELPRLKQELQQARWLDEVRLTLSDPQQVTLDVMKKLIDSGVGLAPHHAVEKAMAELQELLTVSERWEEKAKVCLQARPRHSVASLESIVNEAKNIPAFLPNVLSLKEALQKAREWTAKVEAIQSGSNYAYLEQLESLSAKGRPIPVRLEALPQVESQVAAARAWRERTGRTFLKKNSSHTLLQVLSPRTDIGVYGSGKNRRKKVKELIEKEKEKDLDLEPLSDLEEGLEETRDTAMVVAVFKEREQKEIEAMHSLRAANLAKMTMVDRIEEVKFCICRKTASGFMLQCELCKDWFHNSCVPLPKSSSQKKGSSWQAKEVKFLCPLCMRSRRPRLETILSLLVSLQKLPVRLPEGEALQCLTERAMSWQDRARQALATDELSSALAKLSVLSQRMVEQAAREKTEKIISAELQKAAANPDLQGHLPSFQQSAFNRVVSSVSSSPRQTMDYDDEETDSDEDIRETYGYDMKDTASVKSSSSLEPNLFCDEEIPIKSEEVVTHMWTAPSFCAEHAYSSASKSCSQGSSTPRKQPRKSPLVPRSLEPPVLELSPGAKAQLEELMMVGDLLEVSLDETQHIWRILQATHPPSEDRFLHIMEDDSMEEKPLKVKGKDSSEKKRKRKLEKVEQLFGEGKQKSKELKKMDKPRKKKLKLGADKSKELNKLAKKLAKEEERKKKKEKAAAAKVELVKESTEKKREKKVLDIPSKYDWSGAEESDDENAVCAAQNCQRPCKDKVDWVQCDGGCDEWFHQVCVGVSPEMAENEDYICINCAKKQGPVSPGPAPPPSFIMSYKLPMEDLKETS
# [6] = target: T3, Lysine-specific demethylase 5A; assay: Inhibition of recombinant HQ5-Halo-tagged JARID1A PHD3 finger domain (unknown origin) expressed in BL21(DE3)pLysS cells after 1 hr by chemiluminescent assay; assay type: cell-based
# [7] = target: T4, Chromodomain Y-like protein (Homo sapiens) (UniProt Q9Y232); assay: Binding affinity to N-terminal GST-tagged CDYL (1 to 78 residues) (unknown origin) expressed in Rosetta2 BL21(DE3)pLysS cells after 30 mins by ITC method
# T4 sequence (whole entry): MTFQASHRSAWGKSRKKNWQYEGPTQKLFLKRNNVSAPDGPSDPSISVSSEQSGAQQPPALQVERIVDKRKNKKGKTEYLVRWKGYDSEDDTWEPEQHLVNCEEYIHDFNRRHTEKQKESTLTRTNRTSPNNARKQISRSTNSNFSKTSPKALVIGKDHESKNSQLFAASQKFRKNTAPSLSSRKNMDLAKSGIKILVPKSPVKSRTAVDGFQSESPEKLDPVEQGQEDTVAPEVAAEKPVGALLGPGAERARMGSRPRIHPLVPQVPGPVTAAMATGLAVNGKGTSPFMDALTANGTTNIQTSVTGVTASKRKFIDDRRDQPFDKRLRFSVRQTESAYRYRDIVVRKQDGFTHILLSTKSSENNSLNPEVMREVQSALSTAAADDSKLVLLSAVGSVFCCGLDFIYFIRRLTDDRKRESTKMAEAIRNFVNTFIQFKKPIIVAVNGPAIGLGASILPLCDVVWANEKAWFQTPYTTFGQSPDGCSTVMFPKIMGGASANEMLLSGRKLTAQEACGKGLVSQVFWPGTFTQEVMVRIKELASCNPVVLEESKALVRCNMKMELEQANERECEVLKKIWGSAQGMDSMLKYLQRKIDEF
# [8] = target: TP53-binding protein 1 (Mus musculus) (UniProt P70399); assay: Inhibition of 53BP1 in mouse naive IgM+ B cells assessed as suppression of LPS/IL4 stimulated B cell antibody class switch recombination by FACS analsysis; assay type: cell-based; conditions: concentration not given here
# Chain of TP53-binding protein 1 (Mus musculus) (P70399 whole entry, the tested form may be a part): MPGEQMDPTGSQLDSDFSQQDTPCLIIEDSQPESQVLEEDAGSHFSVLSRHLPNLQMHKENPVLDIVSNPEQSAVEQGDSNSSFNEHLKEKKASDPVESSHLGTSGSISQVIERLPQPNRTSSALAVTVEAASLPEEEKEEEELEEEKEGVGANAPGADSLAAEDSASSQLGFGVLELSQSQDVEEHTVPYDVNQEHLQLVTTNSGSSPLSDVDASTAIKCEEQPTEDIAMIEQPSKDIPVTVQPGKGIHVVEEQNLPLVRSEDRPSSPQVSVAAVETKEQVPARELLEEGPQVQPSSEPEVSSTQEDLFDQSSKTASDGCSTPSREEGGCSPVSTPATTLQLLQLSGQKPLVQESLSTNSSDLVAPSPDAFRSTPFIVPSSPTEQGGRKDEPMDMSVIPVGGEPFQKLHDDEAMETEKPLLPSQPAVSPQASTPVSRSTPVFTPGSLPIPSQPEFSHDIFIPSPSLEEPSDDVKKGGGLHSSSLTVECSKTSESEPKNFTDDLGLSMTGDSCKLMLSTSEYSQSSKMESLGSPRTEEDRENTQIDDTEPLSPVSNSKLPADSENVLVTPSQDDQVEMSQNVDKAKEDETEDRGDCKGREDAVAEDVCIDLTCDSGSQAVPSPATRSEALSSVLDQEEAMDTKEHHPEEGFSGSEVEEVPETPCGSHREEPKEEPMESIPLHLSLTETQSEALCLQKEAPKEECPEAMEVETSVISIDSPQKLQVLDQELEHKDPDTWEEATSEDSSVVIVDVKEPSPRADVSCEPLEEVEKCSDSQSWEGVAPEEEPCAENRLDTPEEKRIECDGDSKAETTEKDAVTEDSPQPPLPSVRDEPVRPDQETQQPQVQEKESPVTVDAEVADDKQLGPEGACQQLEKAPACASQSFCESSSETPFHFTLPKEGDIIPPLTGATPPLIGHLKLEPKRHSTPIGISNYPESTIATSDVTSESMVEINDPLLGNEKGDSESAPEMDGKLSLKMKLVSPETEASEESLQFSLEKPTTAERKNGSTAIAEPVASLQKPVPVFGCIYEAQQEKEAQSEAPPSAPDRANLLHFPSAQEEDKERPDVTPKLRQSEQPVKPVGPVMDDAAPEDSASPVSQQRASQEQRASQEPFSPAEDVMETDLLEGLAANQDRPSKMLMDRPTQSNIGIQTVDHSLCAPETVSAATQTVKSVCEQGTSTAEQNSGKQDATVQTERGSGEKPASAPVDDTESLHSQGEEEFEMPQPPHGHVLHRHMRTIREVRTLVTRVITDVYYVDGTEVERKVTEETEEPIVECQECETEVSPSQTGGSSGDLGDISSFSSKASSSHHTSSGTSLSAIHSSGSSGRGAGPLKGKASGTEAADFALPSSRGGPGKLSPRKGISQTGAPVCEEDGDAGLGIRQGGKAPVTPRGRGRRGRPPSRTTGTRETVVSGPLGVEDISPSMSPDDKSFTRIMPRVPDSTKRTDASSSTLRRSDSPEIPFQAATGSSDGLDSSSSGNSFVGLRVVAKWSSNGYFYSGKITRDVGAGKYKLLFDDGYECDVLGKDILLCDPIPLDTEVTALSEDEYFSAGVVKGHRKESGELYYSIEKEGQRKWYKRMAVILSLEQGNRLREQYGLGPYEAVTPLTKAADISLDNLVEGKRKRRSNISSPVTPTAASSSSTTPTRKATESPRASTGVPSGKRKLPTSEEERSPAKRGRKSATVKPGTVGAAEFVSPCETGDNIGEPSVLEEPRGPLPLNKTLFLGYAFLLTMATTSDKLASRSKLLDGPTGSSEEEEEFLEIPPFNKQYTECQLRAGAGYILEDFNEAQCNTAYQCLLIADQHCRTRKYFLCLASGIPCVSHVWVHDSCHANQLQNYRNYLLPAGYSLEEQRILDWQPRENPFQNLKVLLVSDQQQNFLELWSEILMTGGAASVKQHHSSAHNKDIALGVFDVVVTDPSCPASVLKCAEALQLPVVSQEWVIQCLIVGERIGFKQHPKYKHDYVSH
# TP53-binding protein 1 = TP53-binding protein 1 (Homo sapiens, UniProt Q12888); assay: Competitive displacement of p53K382me2 from His-tagged 53BP1 tandem Tudor domain (unknown origin)
smiles,measurement,setting,value
COC(=O)[C@H](C)NC(=O)[C@H](Cc1ccccc1)NC(=O)[C@H](CCCC[N+](C)(C)C)NC(=O)[C@H](CCCNC(=N)N)NC(=O)[C@@H](N)CCC(N)=O (H-QR[Lys(Me3)]FA-OMe),Kd,Polycomb protein EED,8.8 µM
COC(=O)CNC(=O)[C@H](Cc1cnc[nH]1)NC(=O)[C@@H](NC(=O)[C@H](CO)NC(=O)[C@H](CCCC[N+](C)(C)C)NC(=O)[C@H](CC(C)C)NC(=O)[C@H](C)NC(=O)[C@H](Cc1ccccc1)NC(=O)CNC(=O)[C@H](CCCNC(=N)N)NC(=O)c1ccccc1)[C@@H](C)O (Bz-RGFAL[Lys(Me3)]STHG-OMe),Kd,[1],5 µM
CN(C)[C@H]1CN(C2CCc3cccc(F)c32)C[C@@H]1c1ccc(N2CCN(S(C)(=O)=O)CC2)cc1 (some centres not stated),Ki,[2],0.0004 µM
Cc1ccc(C(=O)Nc2ccc(S(=O)(=O)O)c3cc(S(=O)(=O)O)cc(S(=O)(=O)O)c23)cc1NC(=O)c1cccc(NC(=O)Nc2cccc(C(=O)Nc3cc(C(=O)Nc4ccc(S(=O)(=O)O)c5cc(S(=O)(=O)O)cc(S(=O)(=O)O)c45)ccc3C)c2)c1 [SURAMIN],IC50,[3],8.1 µM
CC(C)C[C@H](NC(=O)[C@@H](N)CCCNC(=N)N)C(=O)N[C@@H](CCC(N)=O)C(=O)N[C@@H](C)C(=O)N[C@@H](CCC(N)=O)C(=O)N[C@@H](CCCNC(=N)N)C(=O)N[C@@H](CCCC[N+](C)(C)C)C(=O)N[C@@H](Cc1ccccc1)C(=O)N[C@@H](C)C(=O)N[C@@H](CCC(N)=O)C(=O)N[C@@H](CO)C(=O)N[C@@H](CCC(N)=O)C(=O)N[C@@H](Cc1ccc(O)cc1)C(=O)O,Kd,Polycomb protein EED,3 µM
NC(=O)c1cc[n+](CC2=C(C(=O)O)N3C(=O)[C@@H](NC(=O)[C@@H](c4ccccc4)S(=O)(=O)[O-])[C@H]3SC2)cc1 [CEFSULODIN],IC50,[4],0.098 µM
CCN(CC)C(=S)SSC(=S)N(CC)CC,IC50,[5],10 µM
CCCCc1oc2ccccc2c1C(=O)c1cc(I)c(OCC[N+](C)(C)C)c(I)c1,IC50,[6],26 to 41 µM
COc1cc(/C=C(\C#N)C(=O)c2ccc(O)c(O)c2)cc(I)c1O,IC50,[4],0.282 µM
CC(C)(C)NCCCNC(=O)c1cccc(Br)c1,Activity,[7],64%
same,inhibition,[8],64%
same,IC50,TP53-binding protein 1,30 µM
